The source of these data is ChEMBL document CHEMBL1136450, “Synthesis and biological activity of 2-carbomethoxy-3-catechol-8-azabicyclo[3.2.1]octanes” (Bioorg Med Chem Lett, 2003).

Holding throughout (format): cell-based, HEK293
The target of assay [1] is T1, Sodium-dependent serotonin transporter (Homo sapiens, UniProt P31645). Put plainly: Inhibition of [3H]5-HT uptake in HEK cells expressing human SERT.
Assay [2] deals with T2, Sodium-dependent dopamine transporter (Homo sapiens, UniProt Q01959).
The target of assay [3] is T3, Sodium-dependent noradrenaline transporter (Homo sapiens, UniProt P23975).
For assay [4], the target named is T3, Sodium-dependent noradrenaline transporter. Kind of assay: Inhibition of [3H]norepinephrine uptake in HEK cells expressing human NET.
For assay [5], the target named is T1, Sodium-dependent serotonin transporter.
In assay [6] the target is T2, Sodium-dependent dopamine transporter. Kind of assay: Inhibition of [3H]dopamine uptake in HEK cells expressing human DAT.

T1 sequence (P31645 whole entry): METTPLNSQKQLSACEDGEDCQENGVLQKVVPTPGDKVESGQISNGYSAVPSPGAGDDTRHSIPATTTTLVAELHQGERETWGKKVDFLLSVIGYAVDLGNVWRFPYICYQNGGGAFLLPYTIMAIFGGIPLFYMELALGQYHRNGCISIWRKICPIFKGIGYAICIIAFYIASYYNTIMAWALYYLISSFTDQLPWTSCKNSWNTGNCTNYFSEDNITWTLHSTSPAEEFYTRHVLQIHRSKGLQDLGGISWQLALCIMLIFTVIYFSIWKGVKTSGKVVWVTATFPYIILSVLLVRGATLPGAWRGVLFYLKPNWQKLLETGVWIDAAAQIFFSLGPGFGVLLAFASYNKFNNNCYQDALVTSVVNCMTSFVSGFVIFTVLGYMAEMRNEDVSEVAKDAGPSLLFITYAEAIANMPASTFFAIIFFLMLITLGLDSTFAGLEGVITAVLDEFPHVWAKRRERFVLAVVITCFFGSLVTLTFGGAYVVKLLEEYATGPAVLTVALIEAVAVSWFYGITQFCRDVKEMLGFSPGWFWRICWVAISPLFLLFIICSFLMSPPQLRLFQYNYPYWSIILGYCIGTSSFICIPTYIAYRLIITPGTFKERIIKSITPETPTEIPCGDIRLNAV
T3 sequence (P23975 whole entry): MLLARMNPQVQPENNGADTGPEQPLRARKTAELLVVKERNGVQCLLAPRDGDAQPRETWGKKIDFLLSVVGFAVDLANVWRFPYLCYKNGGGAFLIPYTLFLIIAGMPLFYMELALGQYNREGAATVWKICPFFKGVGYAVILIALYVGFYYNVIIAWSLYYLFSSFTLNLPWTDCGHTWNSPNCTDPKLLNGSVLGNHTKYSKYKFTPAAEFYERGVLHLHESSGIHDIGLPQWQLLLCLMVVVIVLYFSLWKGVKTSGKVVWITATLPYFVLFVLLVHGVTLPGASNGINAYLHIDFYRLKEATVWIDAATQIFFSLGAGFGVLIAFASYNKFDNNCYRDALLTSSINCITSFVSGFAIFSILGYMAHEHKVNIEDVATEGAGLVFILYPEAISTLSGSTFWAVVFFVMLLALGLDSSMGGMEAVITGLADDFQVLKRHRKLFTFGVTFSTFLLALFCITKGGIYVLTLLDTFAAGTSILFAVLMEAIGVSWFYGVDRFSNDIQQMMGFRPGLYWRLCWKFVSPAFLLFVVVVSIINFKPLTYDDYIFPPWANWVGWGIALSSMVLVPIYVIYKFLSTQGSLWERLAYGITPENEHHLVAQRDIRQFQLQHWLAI
T2 sequence (Q01959 whole entry): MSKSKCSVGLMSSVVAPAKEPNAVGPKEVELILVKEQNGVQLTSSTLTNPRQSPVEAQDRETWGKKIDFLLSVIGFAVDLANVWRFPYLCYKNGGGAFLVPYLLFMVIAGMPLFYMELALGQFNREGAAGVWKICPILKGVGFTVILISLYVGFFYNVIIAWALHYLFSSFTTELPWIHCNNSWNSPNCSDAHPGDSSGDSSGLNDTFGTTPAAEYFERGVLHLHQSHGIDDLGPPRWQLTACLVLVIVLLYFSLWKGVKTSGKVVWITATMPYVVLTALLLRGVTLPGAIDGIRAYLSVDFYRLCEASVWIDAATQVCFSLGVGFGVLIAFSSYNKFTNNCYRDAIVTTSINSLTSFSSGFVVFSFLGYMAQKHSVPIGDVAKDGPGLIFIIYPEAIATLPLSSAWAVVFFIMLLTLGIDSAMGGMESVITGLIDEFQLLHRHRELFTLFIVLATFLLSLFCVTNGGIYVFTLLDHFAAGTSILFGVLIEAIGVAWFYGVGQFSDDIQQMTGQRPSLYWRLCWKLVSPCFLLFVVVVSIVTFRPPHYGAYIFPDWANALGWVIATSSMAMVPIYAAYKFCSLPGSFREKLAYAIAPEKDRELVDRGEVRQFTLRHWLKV

Consider `COC(=O)C1C(c2ccc(O)c(O)c2)CC2CCC1N2C` (stereo in doubt; 7), for which the IC50 (as a rule, the concentration needed to halve the response being measured) in assay [1] was 308 nM; in assay [4], 122 nM; in assay [6] it was 507 nM. The Ki (in general, a measure of affinity in units of concentration, obtained from inhibition or displacement) in assay [2] was found to be 1370 nM; in assay [3], 2960 nM; in assay [5] it was 271 nM.
`COC(=O)C1C(c2ccc(C(C)=O)c(C(C)=O)c2)CC2CCC1N2C` (stereo in doubt; 10) registered an IC50 in assay [1] of 330 nM. Also, the values for the Ki in assay [2] (hek293), in assay [3] (hek293) and in assay [5] were above 10000 nM, above 10000 nM and 168 nM, respectively.
Consider `COC(=O)C1C(c2ccc(C(C)=O)c(C(C)=O)c2)CC2CCC1N2C` (stereo in doubt; 11), for which the Ki in assay [2] was above 10000 nM; in assay [3], above 10000 nM; in assay [5], 704 nM.
Consider `COC(=O)C1=C(c2ccc(O)c(O)c2)CC2CCC1N2C` (stereo not given), for which the Ki in assay [2], in assay [3] and in assay [5] was above 10000 nM throughout.
Turning to `COC(=O)C1C(c2ccc(OC)c(OC)c2)CC2CCC1N2C` (stereo not given), the values for the IC50 in assay [1], in assay [4] and in assay [6] were 23 nM, 1450 nM and 1570 nM, respectively. For the same compound, the Ki in assay [2] was 1540 nM; in assay [3], 4500 nM; in assay [5], 46 nM.
As for `COC(=O)C1=C(c2ccc(C(C)=O)c(C(C)=O)c2)CC2CCC1N2C` (stereo not given), the Ki in assay [2], in assay [3] and in assay [5] was above 10000 nM each time.
`COC(=O)C1C(c2ccc(O)c(O)c2)CC2CCC1N2C` (stereo in doubt; 8): the results for the Ki in assay [2], in assay [3] and in assay [5] were 970 nM, 3060 nM and 10000 nM, respectively. Besides, the half-inhibitory concentration (IC50) in assay [4] was 173 nM; in assay [6], 406 nM.
